Data taken from PubChem BioAssay AID1902 (Broad Institute, 2009).
Active and inactive are the calls of the source.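 Rule for the calls: active = EC50 no more than a set limit of log units above the highest dose; inactive = the rest.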

Target: S. pyogenes SKKanGAS, kanamycin survival, BacTiterGlo, 6 h
Experiment: SKKanGAS survival reduction under kanamycin, dose response, streptokinase promoter inhibitor project, SKKanGAS strain, luminescence, dose confirmation (AID 1902);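 note: lower survival reflects blocked streptokinase promoter driving kanamycin resistance gene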

First: O=C(O)CN1C(=O)/C(=C\c2cc(Br)ccc2OCc2ccccc2Cl)SC1=S
Second: Cc1cccc(/C=N/NC(=O)c2ccccc2OCc2cccc(Br)c2)n1
The EC50 of the first is 3.2-fold lower: 2.08 µM for the first, 6.56 µM for the second.

First: COc1ccc(NS(=O)(=O)c2cccc(NC(=O)CCC(=O)c3ccc(Cl)cc3)c2)cc1
Second: COc1ccc(-n2c(SCC(=O)Nc3ccccc3)nc(O)cc2=O)cc1
The EC50 of the first is 1.9-fold lower: 7.85 µM for the first, 15.2 µM for the second.

Going from `COc1cccc(/C=N/Nc2cc(C)nc(-c3ccccc3O)n2)c1O` to `Cc1cc(N/N=C/c2cccc(Br)c2)nc2ccccc12`, the EC50 rises from 1.96 µM to 5.25 µM (2.7-fold).

Compared with `COc1cccc(-c2coc3c(C)c4oc(=O)c(CCC(=O)O)c(C)c4cc23)c1`, `COc1ccc2oc(C(=O)Nc3nc(-c4ccccn4)cs3)c(C)c2c1` is 3.1-fold lower in EC50: 3.73 µM for the first, 1.19 µM for the second. The second is the more potent here.

First: COc1cc(/C=N\NC(=O)c2ccc(Cn3cc(Br)c([N+](=O)[O-])n3)o2)cc(OC)c1O
Second: O=C(N/N=C/c1ccc([N+](=O)[O-])o1)c1cn(-c2ccccc2)nc1-c1ccc(F)cc1
The EC50 of the first is 4.3-fold higher: 4.97 µM for the first, 1.16 µM for the second. The second is the more potent here.

First: O=C(N[C@H](CO)[C@H](O)c1ccc([N+](=O)[O-])cc1)C(Cl)Cl
Second: Cc1cccc(C(=O)Nc2scc(-c3ccc(Br)cc3)c2C(=O)O)c1
The EC50 of the first is 1.9-fold lower: 0.973 µM for the first, 1.89 µM for the second.

Compared with `O=C(O)c1ccc(N/N=C/c2ccc(-c3ccc(Br)cc3)o2)cc1`, `COc1ccc(CCNC(=O)c2ccc(CNS(=O)(=O)c3ccc(C(C)(C)C)cc3)cc2)cc1OC` is 3-fold higher in EC50: 2.36 µM for the first, 7 µM for the second. The first is the more potent here.

Compared with `CCOc1ccccc1NC(=O)c1nc(S(=O)(=O)Cc2cccc(C)c2)ncc1Cl`, `O=C(Cc1csc(Nc2nc(=S)[nH]c3ccccc23)n1)NCCCN1CCN(c2cccc(Cl)c2)CC1` is 1.8-fold lower in EC50: 11.1 µM for the first, 6.12 µM for the second. The second is the more potent here.

Compared with `CCc1nnc(NS(=O)(=O)c2ccc(NCc3cc(Cl)cc(Cl)c3O)cc2)s1`, `CC(C)(C)c1cc(C(=O)NNc2cc(C(F)(F)F)ccc2Cl)n(Cc2ccccc2)n1` is 2.9-fold lower in EC50: 14.2 µM for the first, 4.92 µM for the second. The second is the more potent here.

Compared with `Cc1ccc(OCC(=O)NNC(=S)NC(=O)c2ccc(Br)o2)c(C)c1`, `Cc1cc(C)c2nc(N3C(=O)C(O)=C(C(=O)c4ccco4)C3c3ccco3)sc2c1` (stereo unspecified) is higher in EC50: < 0.06 µM for the first, 2.12 µM for the second.

First: O=C(N/N=C/c1cc2c3c(c1O)CCCN3CCC2)c1ccccc1O
Second: Cc1cc(C)c(C)c(S(=O)(=O)N2CCC(C(=O)NNC(=O)c3ccccc3O)CC2)c1C
The EC50 of the first is 1.7-fold lower: 7.14 µM for the first, 11.8 µM for the second.

`O=C1NC[C@@H](Cc2cccc3ccccc23)N(CCCCC2CCCCC2)C1=O` and `O=C(/C=C/c1c[nH]c2ccccc12)c1c(O)n(CCc2ccccc2)c(=O)[nH]c1=O` are within 1.5-fold of each other in EC50: 3.93 µM for the first, 3.11 µM for the second.

First: COC(=O)C(C)NC(=S)N1CCN(c2c(F)cc3c(=O)c(C(=O)O)cn(C4CC4)c3c2OC)CC1C (stereo unspecified)
Second: COc1ccc(C(=O)Nc2sc(C)c(-c3ccccc3)c2C#N)cc1OC
The EC50 of the first is 4-fold lower: 3.31 µM for the first, 13.3 µM for the second.

Compared with `COc1ccc(Cc2[nH]n3c(=O)cc(C(C)C)nc3c2-c2ccccc2)cc1`, `Cc1nn2c(NCc3ccccn3)cc(C(C)C)nc2c1-c1ccccc1` is 2.5-fold higher in EC50: 2.33 µM for the first, 5.94 µM for the second.

`Cc1nn(-c2ccccc2)c2sc(C(=O)N3CCc4ccccc4C3)cc12` and `CC[n+]1c(/C=C/N(C)c2ccccc2)n(-c2ccccc2)c2ccc(-c3nc4ccccc4s3)cc21` are within 1.5-fold of each other in EC50: 4.16 µM for the first, 3.61 µM for the second.

`O=C1CN(/N=C/c2ccc([N+](=O)[O-])o2)C(=O)N1` and `CCN1/C(=C\c2ccc3cc(C)ccc3[n+]2CC)Sc2cc(C)c(C)cc21` are within 1.5-fold of each other in EC50: 5.83 µM for the first, 4.23 µM for the second.

First: Oc1ccccc1C(Nc1nccs1)c1ccc2cccnc2c1O (stereo unspecified)
Second: CCn1nc(NC(=O)c2ccncc2)c2cc3cc(C)ccc3nc21
The EC50 of the first is 1.6-fold higher: 4.35 µM for the first, 2.66 µM for the second. The second is the more potent here.

`Cc1ccc(Cn2ccc(=O)c(OCc3c(Cl)cccc3Cl)c2C)cc1` and `CCCCCc1ccc(OCCOCCn2c[n+](C)c3ccccc32)c(CCCCC)c1` are within 1.5-fold of each other in EC50: 5.94 µM for the first, 5.79 µM for the second.

`CCOC(=O)c1sc(Nc2nc3ccc(OC)cc3s2)cc1C` gave an EC50 of 2.95 µM.

For `COc1ccccc1OCC(=O)Nc1c2c(nn1-c1ccc(F)cc1)CS(=O)(=O)C2`, the EC50 was > 15 µM (inactive).
In the case of `CCN(CC)C(=O)c1cc(-c2ccc(Br)cc2)on1`, the EC50 is reported as > 15 µM (inactive).
In the case of `CC1CN(Cc2nc3c(c(=O)[nH]c(=O)n3C)n2CCCc2ccccc2)CC(C)O1` (stereo unspecified), the EC50 is reported as > 15 µM (inactive).
With `O=S(=O)(Cc1nnnn1-c1ccccc1)c1ccc(F)cc1` the EC50 was > 15 µM (inactive).
